Assay results as given in ChEMBL document CHEMBL1201862, “PubChem BioAssay data set” (2004).
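Briefly, cells in 96-well plates were exposed to five compound concentrations for 48 h, and endpoints were estimated by linear interpolation. The concentration for 50% growth inhibition is given as GI50.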 The source made the active and inactive calls. No stated cut-off is given here; in the data, active = GI50 up to about 1.1 µM and inactive = higher.

Legend:
Test in all cases: inhibition of tumour cell growth, NCI panel, 48 h
[1] = system: SK-MEL-2
[2] = system: MDA-MB-435
[3] = system: NCI-H23
[4] = system: Hs-578T
[5] = system: OVCAR-5
[6] = system: RXF 393
[7] = system: SF-539
[8] = system: SNB-75
[9] = system: SR
[10] = system: MOLT-4
[11] = system: UO-31
[12] = system: U-251
[13] = system: A549
[14] = system: M14
[15] = system: HCC 2998
[16] = system: PC-3
[17] = system: TK-10
[18] = system: OVCAR-4
[19] = system: HCT-116
[20] = system: BT-549
[21] = system: SN12C
[22] = system: EKVX
[23] = system: OVCAR-8
[24] = system: UACC-257
[25] = system: MDA-MB-231
[26] = system: IGROV-1
[27] = system: K562
[28] = system: KM12
[29] = system: SK-MEL-28
[30] = system: NCI-H522
[31] = system: HT-29
[32] = system: HCT-15
[33] = system: A498
[34] = system: SF-295
[35] = system: UACC-62
[36] = system: ACHN
[37] = system: NCI-H460
[38] = system: SW-620
[39] = system: OVCAR-3
[40] = system: LOX IMVI
[41] = system: SNB-19
[42] = system: MCF7
[43] = system: Malme-3M
[44] = system: HOP-62
[45] = system: RPMI-8226
[46] = system: 786-0
[47] = system: DU-145
[48] = system: T47D
[49] = system: SK-MEL-5
[50] = system: CCRF-CEM
[51] = system: NCI-H226
[52] = system: COLO 205
[53] = system: SF-268
[54] = system: CAKI-1
[55] = system: NCI/ADR-RES
[56] = system: HOP-92
[57] = system: MDA-N
[58] = system: SK-OV-3
[59] = system: HL-60
[60] = system: DMS-114
[61] = system: DMS-273
[62] = system: LXFL 529
[63] = system: KM-20L2
[64] = system: DLD-1
[65] = system: HOP-18
[66] = system: M19-MEL

`O=C(CNC(=O)OCc1ccccc1)NCCCCC(NC(=O)OCc1ccccc1)C(=O)O` (stereo unspecified) was tested, and the GI50 [1] was > 100 µM (inactive), the GI50 [2] was > 100 µM (inactive) and the GI50 [3] was > 100 µM (inactive). The GI50 [4] was > 100 µM (inactive), the GI50 [5] was > 100 µM (inactive) and the GI50 [6] was > 100 µM (inactive). The GI50 [7] was > 100 µM (inactive), the GI50 [8] was > 100 µM (inactive) and the GI50 [9] was > 100 µM (inactive). For the same molecule, the GI50 [10] was > 100 µM (inactive), the GI50 [11] was > 100 µM (inactive) and the GI50 [12] was > 100 µM (inactive). For the same molecule, the GI50 [13] was > 100 µM (inactive), the GI50 [14] was > 100 µM (inactive) and the GI50 [15] was > 100 µM (inactive). For the same molecule, the GI50 [16] was > 100 µM (inactive), the GI50 [17] was > 100 µM (inactive) and the GI50 [18] was > 100 µM (inactive). The GI50 [19] was > 100 µM (inactive), the GI50 [20] was > 100 µM (inactive) and the GI50 [21] was > 100 µM (inactive). The GI50 [22] was > 100 µM (inactive), the GI50 [23] was > 100 µM (inactive) and the GI50 [24] was > 100 µM (inactive). For the same molecule, the GI50 [25] was > 100 µM (inactive), the GI50 [26] was > 100 µM (inactive) and the GI50 [27] was > 100 µM (inactive). For the same molecule, the GI50 [28] was > 100 µM (inactive), the GI50 [29] was > 100 µM (inactive) and the GI50 [30] was > 100 µM (inactive). For the same molecule, the GI50 [31] was > 100 µM (inactive), the GI50 [32] was > 100 µM and the GI50 [33] was > 100 µM (inactive). For the same molecule, the GI50 [34] was > 100 µM (inactive), the GI50 [35] was > 100 µM (inactive) and the GI50 [36] was > 100 µM (inactive). The GI50 [37] was > 100 µM (inactive), the GI50 [38] was > 100 µM (inactive) and the GI50 [39] was > 100 µM (inactive). For the same molecule, the GI50 [40] was > 100 µM (inactive), the GI50 [41] was > 100 µM (inactive) and the GI50 [42] was > 100 µM (inactive). The GI50 [43] was > 100 µM (inactive), the GI50 [44] was > 100 µM (inactive) and the GI50 [45] was > 100 µM (inactive). The GI50 [46] was > 100 µM (inactive), the GI50 [47] was > 100 µM (inactive) and the GI50 [48] was > 100 µM (inactive). For the same molecule, the GI50 [49] was > 100 µM (inactive), the GI50 [50] was > 100 µM (inactive) and the GI50 [51] was > 100 µM (inactive). The GI50 [52] was > 100 µM (inactive), the GI50 [53] was > 100 µM (inactive) and the GI50 [54] was > 100 µM (inactive). For the same molecule, the GI50 [55] was > 100 µM (inactive), the GI50 [56] was > 100 µM (inactive) and the GI50 [57] was > 100 µM (inactive). The GI50 [58] was > 100 µM (inactive) and the GI50 [59] was > 100 µM (inactive).

With `CSC1=NC=CCN1C` the GI50 [60] was > 100 µM (inactive), the GI50 [1] was > 100 µM (inactive) and the GI50 [3] was > 100 µM (inactive). For the same molecule, the GI50 [5] was > 100 µM (inactive), the GI50 [8] was > 100 µM (inactive) and the GI50 [10] was > 100 µM (inactive). For the same molecule, the GI50 [11] was > 100 µM (inactive), the GI50 [12] was > 100 µM (inactive) and the GI50 [13] was > 100 µM (inactive). The GI50 [14] was > 100 µM (inactive), the GI50 [15] was > 100 µM (inactive) and the GI50 [17] was > 100 µM (inactive). For the same molecule, the GI50 [18] was > 100 µM (inactive), the GI50 [19] was > 100 µM (inactive) and the GI50 [21] was > 100 µM (inactive). For the same molecule, the GI50 [22] was > 100 µM (inactive), the GI50 [23] was > 100 µM (inactive) and the GI50 [24] was > 100 µM (inactive). For the same molecule, the GI50 [61] was > 100 µM (inactive), the GI50 [26] was > 100 µM (inactive) and the GI50 [62] was > 100 µM (inactive). For the same molecule, the GI50 [27] was > 100 µM (inactive), the GI50 [63] was > 100 µM (inactive) and the GI50 [28] was > 100 µM (inactive). For the same molecule, the GI50 [29] was > 100 µM (inactive), the GI50 [30] was > 100 µM (inactive) and the GI50 [31] was > 100 µM (inactive). For the same molecule, the GI50 [64] was > 100 µM (inactive), the GI50 [32] was > 100 µM and the GI50 [33] was > 100 µM (inactive). For the same molecule, the GI50 [34] was > 100 µM (inactive), the GI50 [35] was > 100 µM (inactive) and the GI50 [36] was > 100 µM (inactive). For the same molecule, the GI50 [37] was > 100 µM (inactive), the GI50 [38] was > 100 µM (inactive) and the GI50 [39] was > 100 µM (inactive). For the same molecule, the GI50 [40] was > 100 µM (inactive), the GI50 [41] was > 100 µM (inactive) and the GI50 [43] was > 100 µM (inactive). The GI50 [44] was > 100 µM (inactive), the GI50 [65] was > 100 µM (inactive) and the GI50 [45] was > 100 µM (inactive). For the same molecule, the GI50 [46] was > 100 µM (inactive), the GI50 [49] was > 100 µM (inactive) and the GI50 [50] was > 100 µM (inactive). For the same molecule, the GI50 [66] was > 100 µM (inactive), the GI50 [51] was > 100 µM (inactive) and the GI50 [52] was > 100 µM (inactive). For the same molecule, the GI50 [53] was > 100 µM (inactive), the GI50 [54] was > 100 µM (inactive) and the GI50 [58] was > 100 µM (inactive). For the same molecule, the GI50 [59] was > 100 µM (inactive).
